{
  "source": "patent US20220242870A1",
  "about": "“HETEROCYCLE-FUSED PYRIMIDINE DERIVATIVE AND USE THEREOF” (VORONOI Inc., priority 2019, published 2022)",
  "assay_in_all_cases": "scanMAX kinase assay panel",
  "type_in_all_cases": "binding",
  "conditions_in_all_cases": "read-out: control percentage (% control)",
  "key": {"PRP4": {"target": "T1, PRP4 (Homo sapiens, UniProt Q13523)", "T1 construct": "purchased DiscoverX scanMAX kinase assay panel", "outline": "(§1)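 Compound was applied as a 1 μM solution in DMSO across the scanMAX kinase panel. Activity is reported as % control, scaled between a positive control (0%) and the DMSO negative control (100%).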"}, "VRK2": {"target": "T2, VRK2 (Homo sapiens, UniProt Q86Y07)", "T2 construct": "purchased DiscoverX", "outline": "as §1"}, "TAK1": {"target": "T3, TAK1 (Homo sapiens, UniProt O43318)", "T3 construct": "purchased DiscoverX", "outline": "as §1"}, "FLT3(K663Q)": {"target": "T4, FLT3(K663Q) (Homo sapiens, UniProt P36888, K663Q)", "T4 construct": "purchased DiscoverX scanMAX kinase assay panel", "outline": "as §1"}, "[1]": {"target": "T5, TYK2(JH2domain-pseudokinase) (Homo sapiens, UniProt P29597)", "T5 construct": "TYK2(JH2domain-pseudokinase); purchased DiscoverX", "T5 sequence (P29597 589-875 limits assumed)": "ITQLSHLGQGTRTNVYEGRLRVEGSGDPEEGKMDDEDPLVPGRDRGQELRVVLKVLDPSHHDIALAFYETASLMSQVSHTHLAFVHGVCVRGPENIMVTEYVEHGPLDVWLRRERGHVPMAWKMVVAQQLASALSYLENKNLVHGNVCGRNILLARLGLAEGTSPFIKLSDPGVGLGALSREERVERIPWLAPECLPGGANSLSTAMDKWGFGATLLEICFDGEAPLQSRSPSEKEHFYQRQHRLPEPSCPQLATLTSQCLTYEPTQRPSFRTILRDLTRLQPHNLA", "outline": "as §1"}, "SLK": {"target": "T6, SLK (Homo sapiens, UniProt Q9H2G2)", "T6 construct": "purchased DiscoverX", "outline": "as §1"}, "PIP5K2C": {"target": "T7, PIP5K2C (Homo sapiens, UniProt Q8TBX8)", "T7 construct": "purchased DiscoverX scanMAX kinase assay panel", "outline": "as §1"}, "RET": {"target": "T8, RET (Homo sapiens, UniProt P07949)", "T8 construct": "purchased DiscoverX scanMAX kinase assay panel", "outline": "as §1"}, "ROCK2": {"target": "T9, ROCK2 (Homo sapiens, UniProt O75116)", "T9 construct": "purchased DiscoverX scanMAX kinase assay panel", "outline": "as §1"}, "DYRK1B": {"target": "T10, DYRK1B (Homo sapiens, UniProt Q9Y463)", "T10 construct": "purchased DiscoverX scanMAX kinase assay panel", "outline": "as §1"}, "MAP3K2": {"target": "T11, MAP3K2 (Homo sapiens, UniProt Q9Y2U5)", "T11 construct": "purchased DiscoverX scanMAX kinase assay panel", "outline": "as §1"}, "PIK4CB": {"target": "T12, PIK4CB (Homo sapiens, UniProt Q9UBF8)", "T12 construct": "purchased DiscoverX scanMAX kinase assay panel", "outline": "as §1"}, "MET(Y1235D)": {"target": "T13, MET(Y1235D) (Homo sapiens, UniProt P08581, Y1235D)", "T13 construct": "purchased DiscoverX scanMAX kinase assay panel", "outline": "as §1"}, "[2]": {"target": "T14, RSK3(Kin.Dom.2-C-terminal) (Homo sapiens, UniProt Q15349)", "T14 construct": "RSK3(Kin.Dom.2-C-terminal); purchased DiscoverX scanMAX kinase assay panel", "T14 sequence (Q15349 415-672 limits assumed)": "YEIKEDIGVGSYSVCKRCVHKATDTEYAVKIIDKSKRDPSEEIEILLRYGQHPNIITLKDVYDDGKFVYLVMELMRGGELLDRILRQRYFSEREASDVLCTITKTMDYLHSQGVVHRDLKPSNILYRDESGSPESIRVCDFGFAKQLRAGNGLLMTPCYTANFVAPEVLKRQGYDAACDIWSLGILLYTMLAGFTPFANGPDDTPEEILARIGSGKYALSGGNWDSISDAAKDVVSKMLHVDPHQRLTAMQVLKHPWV", "outline": "as §1"}, "FGR": {"target": "T15, FGR (Homo sapiens, UniProt P09769)", "T15 construct": "purchased DiscoverX scanMAX kinase assay panel", "outline": "as §1"}, "MAP4K5": {"target": "T16, MAP4K5 (Homo sapiens, UniProt Q9Y4K4)", "T16 construct": "purchased DiscoverX scanMAX kinase assay panel", "outline": "as §1"}, "TIE1": {"target": "T17, TIE1 (Homo sapiens, UniProt P35590)", "T17 construct": "purchased DiscoverX", "T17 sequence (P35590 22-1138)": "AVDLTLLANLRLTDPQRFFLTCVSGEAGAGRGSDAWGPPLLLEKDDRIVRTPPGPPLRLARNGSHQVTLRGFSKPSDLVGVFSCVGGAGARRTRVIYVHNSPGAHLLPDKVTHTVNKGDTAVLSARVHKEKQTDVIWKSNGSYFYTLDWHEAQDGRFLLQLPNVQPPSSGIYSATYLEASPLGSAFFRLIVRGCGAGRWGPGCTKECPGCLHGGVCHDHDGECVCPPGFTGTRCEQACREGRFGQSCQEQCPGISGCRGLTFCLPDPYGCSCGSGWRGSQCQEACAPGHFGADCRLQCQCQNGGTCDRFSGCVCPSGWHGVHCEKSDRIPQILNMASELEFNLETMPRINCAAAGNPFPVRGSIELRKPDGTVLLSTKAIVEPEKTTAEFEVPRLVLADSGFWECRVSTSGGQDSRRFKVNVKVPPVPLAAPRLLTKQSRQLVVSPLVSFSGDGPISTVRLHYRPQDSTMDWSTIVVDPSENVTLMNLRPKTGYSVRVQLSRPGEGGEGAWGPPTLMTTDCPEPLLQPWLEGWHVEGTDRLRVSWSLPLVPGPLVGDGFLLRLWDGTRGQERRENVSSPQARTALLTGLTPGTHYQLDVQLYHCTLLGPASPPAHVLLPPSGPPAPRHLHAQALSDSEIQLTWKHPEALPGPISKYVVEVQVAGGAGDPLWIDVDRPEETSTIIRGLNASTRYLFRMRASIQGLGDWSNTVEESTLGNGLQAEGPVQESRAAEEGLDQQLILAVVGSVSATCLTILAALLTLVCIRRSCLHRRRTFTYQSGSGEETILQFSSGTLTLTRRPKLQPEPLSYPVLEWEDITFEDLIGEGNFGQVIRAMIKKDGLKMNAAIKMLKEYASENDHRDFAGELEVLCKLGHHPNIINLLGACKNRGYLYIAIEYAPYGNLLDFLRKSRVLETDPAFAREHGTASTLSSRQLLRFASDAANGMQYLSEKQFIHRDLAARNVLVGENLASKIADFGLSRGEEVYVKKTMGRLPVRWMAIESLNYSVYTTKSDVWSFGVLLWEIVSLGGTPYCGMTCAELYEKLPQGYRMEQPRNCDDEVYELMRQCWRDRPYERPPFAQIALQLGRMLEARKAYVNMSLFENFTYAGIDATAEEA", "outline": "as §1"}, "FLT3(D835Y)": {"target": "T18, FLT3(D835Y) (Homo sapiens, UniProt P36888, D835Y)", "T18 construct": "purchased DiscoverX scanMAX kinase assay panel", "outline": "as §1"}, "TAOK3": {"target": "T19, TAOK3 (Homo sapiens, UniProt Q9H2K8)", "T19 construct": "purchased DiscoverX", "outline": "as §1"}, "[3]": {"target": "T20, RSK4(Kin.Dom.2-C-terminal) (Homo sapiens, UniProt Q9UK32)", "T20 construct": "RSK4(Kin.Dom.2-C-terminal); purchased DiscoverX scanMAX kinase assay panel", "T20 sequence (Q9UK32 426-683 limits assumed)": "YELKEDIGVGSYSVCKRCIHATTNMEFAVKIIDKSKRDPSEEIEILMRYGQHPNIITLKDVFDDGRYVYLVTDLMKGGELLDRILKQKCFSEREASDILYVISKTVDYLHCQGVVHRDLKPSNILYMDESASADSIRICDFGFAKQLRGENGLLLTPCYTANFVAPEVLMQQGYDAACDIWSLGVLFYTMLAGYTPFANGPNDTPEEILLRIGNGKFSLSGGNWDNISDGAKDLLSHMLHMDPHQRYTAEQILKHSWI", "outline": "as §1"}, "CLK2": {"target": "T21, CLK2 (Homo sapiens, UniProt P49760)", "T21 construct": "purchased DiscoverX (scanMAX panel, contract assay)", "outline": "as §1"}, "EGFR(T790M)": {"target": "T22, EGFR(T790M) (Homo sapiens, UniProt P00533, T790M)", "T22 construct": "purchased DiscoverX scanMAX kinase assay panel", "outline": "as §1"}, "HPK1": {"target": "T23, HPK1 (Homo sapiens, UniProt Q92918)", "T23 construct": "purchased DiscoverX scanMAX kinase assay panel", "outline": "as §1"}, "TRKB": {"target": "T24, TRKB (Homo sapiens, UniProt Q16620)", "T24 construct": "purchased DiscoverX", "outline": "as §1"}, "LRRK2": {"target": "T25, LRRK2 (Homo sapiens, UniProt Q5S007)", "T25 construct": "purchased DiscoverX scanMAX kinase assay panel", "outline": "as §1"}, "YSK4": {"target": "T26, YSK4 (Homo sapiens, UniProt Q56UN5)", "T26 construct": "purchased DiscoverX", "outline": "as §1"}, "TTK": {"target": "T27, TTK (Homo sapiens, UniProt P33981)", "T27 construct": "purchased DiscoverX", "outline": "as §1"}, "CLK4": {"target": "T28, CLK4 (Homo sapiens, UniProt Q9HAZ1)", "T28 construct": "purchased DiscoverX (scanMAX panel, contract assay)", "outline": "as §1"}, "MET(M1250T)": {"target": "T29, MET(M1250T) (Homo sapiens, UniProt P08581, M1250T)", "T29 construct": "purchased DiscoverX scanMAX kinase assay panel", "T29 sequence (P08581 25-1390 M1250T)": "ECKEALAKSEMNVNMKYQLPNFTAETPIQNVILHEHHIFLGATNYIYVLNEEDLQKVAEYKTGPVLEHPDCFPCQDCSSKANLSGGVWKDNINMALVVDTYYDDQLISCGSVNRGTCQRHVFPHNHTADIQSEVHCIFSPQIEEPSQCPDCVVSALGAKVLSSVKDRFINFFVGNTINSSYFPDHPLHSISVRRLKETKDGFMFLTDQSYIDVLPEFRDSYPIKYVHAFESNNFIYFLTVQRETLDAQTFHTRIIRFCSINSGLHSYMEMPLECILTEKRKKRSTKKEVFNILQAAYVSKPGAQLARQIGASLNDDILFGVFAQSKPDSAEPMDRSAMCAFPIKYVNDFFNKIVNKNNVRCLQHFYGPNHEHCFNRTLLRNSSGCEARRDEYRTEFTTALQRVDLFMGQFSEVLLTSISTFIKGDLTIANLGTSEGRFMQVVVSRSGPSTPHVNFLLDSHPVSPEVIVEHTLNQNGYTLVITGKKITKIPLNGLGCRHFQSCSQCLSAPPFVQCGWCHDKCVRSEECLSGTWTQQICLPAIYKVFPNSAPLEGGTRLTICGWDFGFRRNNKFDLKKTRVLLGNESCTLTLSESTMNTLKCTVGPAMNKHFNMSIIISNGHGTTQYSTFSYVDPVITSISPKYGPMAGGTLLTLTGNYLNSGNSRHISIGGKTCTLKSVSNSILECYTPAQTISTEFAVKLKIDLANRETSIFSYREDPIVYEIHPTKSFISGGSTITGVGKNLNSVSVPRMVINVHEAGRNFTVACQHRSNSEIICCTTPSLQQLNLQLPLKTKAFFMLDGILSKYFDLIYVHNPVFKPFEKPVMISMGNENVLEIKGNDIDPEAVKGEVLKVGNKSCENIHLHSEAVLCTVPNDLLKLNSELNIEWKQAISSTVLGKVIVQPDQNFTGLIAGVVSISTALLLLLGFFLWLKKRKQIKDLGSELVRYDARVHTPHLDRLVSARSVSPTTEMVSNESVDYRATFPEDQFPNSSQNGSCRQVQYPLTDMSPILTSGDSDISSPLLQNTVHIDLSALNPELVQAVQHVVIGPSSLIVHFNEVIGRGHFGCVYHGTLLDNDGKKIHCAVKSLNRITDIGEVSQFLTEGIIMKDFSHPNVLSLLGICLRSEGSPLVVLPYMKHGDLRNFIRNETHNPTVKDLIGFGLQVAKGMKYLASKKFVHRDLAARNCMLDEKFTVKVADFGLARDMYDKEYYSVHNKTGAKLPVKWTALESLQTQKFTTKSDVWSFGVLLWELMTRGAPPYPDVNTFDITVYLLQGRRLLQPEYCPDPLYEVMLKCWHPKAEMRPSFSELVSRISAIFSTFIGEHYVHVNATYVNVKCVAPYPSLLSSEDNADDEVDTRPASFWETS", "outline": "as §1"}, "[4]": {"target": "T30, ABL1(H396P)-nonphosphorylated (Homo sapiens, UniProt P00519, H396P)", "T30 construct": "purchased DiscoverX (scanMAX panel, contract assay)", "outline": "as §1"}, "MLK1": {"target": "T31, MLK1 (Homo sapiens, UniProt P80192)", "T31 construct": "purchased DiscoverX scanMAX kinase assay panel", "T31 sequence (P80192 whole entry)": "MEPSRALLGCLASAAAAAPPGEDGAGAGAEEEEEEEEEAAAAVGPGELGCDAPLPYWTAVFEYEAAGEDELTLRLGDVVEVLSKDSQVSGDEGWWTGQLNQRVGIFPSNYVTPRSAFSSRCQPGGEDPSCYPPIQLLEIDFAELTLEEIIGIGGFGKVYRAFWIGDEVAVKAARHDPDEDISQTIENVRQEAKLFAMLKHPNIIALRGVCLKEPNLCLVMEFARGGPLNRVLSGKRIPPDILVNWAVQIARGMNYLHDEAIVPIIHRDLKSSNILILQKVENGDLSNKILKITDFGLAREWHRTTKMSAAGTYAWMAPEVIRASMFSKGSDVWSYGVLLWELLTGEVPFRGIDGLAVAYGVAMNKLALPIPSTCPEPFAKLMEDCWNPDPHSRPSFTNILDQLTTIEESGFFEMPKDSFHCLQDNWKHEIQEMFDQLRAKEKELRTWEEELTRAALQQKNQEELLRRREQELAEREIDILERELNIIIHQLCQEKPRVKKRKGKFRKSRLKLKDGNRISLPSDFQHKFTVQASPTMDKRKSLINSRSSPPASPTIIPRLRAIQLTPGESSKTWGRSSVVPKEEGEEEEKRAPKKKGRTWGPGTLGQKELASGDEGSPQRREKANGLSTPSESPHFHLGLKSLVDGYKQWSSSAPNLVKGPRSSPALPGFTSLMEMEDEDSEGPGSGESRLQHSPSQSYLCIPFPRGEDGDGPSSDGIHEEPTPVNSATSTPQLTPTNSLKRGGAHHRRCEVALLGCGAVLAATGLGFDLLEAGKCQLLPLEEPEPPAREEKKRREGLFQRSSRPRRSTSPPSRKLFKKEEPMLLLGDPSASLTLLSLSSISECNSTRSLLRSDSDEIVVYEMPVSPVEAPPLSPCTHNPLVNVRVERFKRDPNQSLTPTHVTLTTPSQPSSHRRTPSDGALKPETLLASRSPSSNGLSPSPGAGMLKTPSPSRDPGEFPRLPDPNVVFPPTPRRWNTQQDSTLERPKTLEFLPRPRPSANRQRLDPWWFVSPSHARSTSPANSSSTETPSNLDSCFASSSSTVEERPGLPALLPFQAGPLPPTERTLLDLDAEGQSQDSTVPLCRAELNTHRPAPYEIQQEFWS", "outline": "as §1"}},
  "data": [
    {"smiles": "CN1CCN(c2ccc(Nc3nc(N4OCC[C@H]4c4ccccc4)c4cc[nH]c4n3)cc2)CC1", "note": "[Example 74, (S)-N-(4-(4-methylpiperazin-1-yl)phenyl)-4-(3-phenylisoxazolidin-2-yl)-7H-pyrrolo[2,3-d]pyrimidin-2-amine]", "values": [
      {"measurement": "remaining binding at 1 µM", "setting": "PRP4", "result": 20, "unit": "%"},
      {"measurement": "remaining binding at 1 µM", "setting": "VRK2", "result": 33, "unit": "%"},
      {"measurement": "remaining binding at 1 µM", "setting": "TAK1", "result": 16, "unit": "%"},
      {"measurement": "remaining binding at 1 µM", "setting": "FLT3(K663Q)", "result": 2.3, "unit": "%"},
      {"measurement": "remaining binding at 1 µM", "setting": "[1]", "result": 2.6, "unit": "%"},
      {"measurement": "remaining binding at 1 µM", "setting": "SLK", "result": 0.25, "unit": "%"},
      {"measurement": "remaining binding at 1 µM", "setting": "PIP5K2C", "result": 26, "unit": "%"},
      {"measurement": "remaining binding at 1 µM", "setting": "RET", "result": 20, "unit": "%"},
      {"measurement": "remaining binding at 1 µM", "setting": "ROCK2", "result": 8, "unit": "%"},
      {"measurement": "remaining binding at 1 µM", "setting": "DYRK1B", "result": 11, "unit": "%"},
      {"measurement": "remaining binding at 1 µM", "setting": "MAP3K2", "result": 14, "unit": "%"},
      {"measurement": "remaining binding at 1 µM", "setting": "PIK4CB", "result": 16, "unit": "%"},
      {"measurement": "remaining binding at 1 µM", "setting": "MET(Y1235D)", "result": 7, "unit": "%"},
      {"measurement": "remaining binding at 1 µM", "setting": "[2]", "result": 17, "unit": "%"},
      {"measurement": "remaining binding at 1 µM", "setting": "FGR", "result": 17, "unit": "%"},
      {"measurement": "remaining binding at 1 µM", "setting": "MAP4K5", "result": 21, "unit": "%"},
      {"measurement": "remaining binding at 1 µM", "setting": "TIE1", "result": 16, "unit": "%"},
      {"measurement": "remaining binding at 1 µM", "setting": "FLT3(D835Y)", "result": 0.15, "unit": "%"},
      {"measurement": "remaining binding at 1 µM", "setting": "TAOK3", "result": 22, "unit": "%"},
      {"measurement": "remaining binding at 1 µM", "setting": "[3]", "result": 31, "unit": "%"},
      {"measurement": "remaining binding at 1 µM", "setting": "CLK2", "result": 9.2, "unit": "%"},
      {"measurement": "remaining binding at 1 µM", "setting": "EGFR(T790M)", "result": 3.7, "unit": "%"},
      {"measurement": "remaining binding at 1 µM", "setting": "HPK1", "result": 0.85, "unit": "%"},
      {"measurement": "remaining binding at 1 µM", "setting": "TRKB", "result": 8.3, "unit": "%"},
      {"measurement": "remaining binding at 1 µM", "setting": "LRRK2", "result": 28, "unit": "%"},
      {"measurement": "remaining binding at 1 µM", "setting": "YSK4", "result": 8.6, "unit": "%"},
      {"measurement": "remaining binding at 1 µM", "setting": "TTK", "result": 13, "unit": "%"},
      {"measurement": "remaining binding at 1 µM", "setting": "CLK4", "result": 6.4, "unit": "%"},
      {"measurement": "remaining binding at 1 µM", "setting": "MET(M1250T)", "result": 11, "unit": "%"},
      {"measurement": "remaining binding at 1 µM", "setting": "[4]", "result": 18, "unit": "%"},
      {"measurement": "remaining binding at 1 µM", "setting": "MLK1", "result": 24, "unit": "%"}
    ]}
  ]
}
